# PubChem BioAssay AID328 (DTP/NCI, 2004)
# Where “and” joins values, the source holds several entries; their conditions need not be identical. Equal values may be shown once. Inconclusive results and toxic doses are left out.
# System: BDF1 mice, P388 leukemia ip, median survival T/C
# Assay: NCI In Vivo Anticancer Drug Screen. Data for tumor model P388 Leukemia (intraperitoneal) in B6D2F1 (BDF1) mice
# Conditions: endpoint: median survival time, higher = longer survival
# Summary of the method: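 Steps: implant the tumour, treat one group with compound and another with vehicle, record survival, then divide treated by control.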
# [1] = dose: 50.0 mg/kg/injection, schedule: Q01DX009 (ip), vehicle: saline with Tween-80
# [2] = dose: 100.0 mg/kg/injection, schedule: Q01DX009 (ip), vehicle: saline with Tween-80
# [3] = dose: 200.0 mg/kg/injection, schedule: Q01DX009 (ip), vehicle: saline with Tween-80
# [4] = dose: 100.0 mg/kg/injection, schedule: Q01DX001 (ip), vehicle: Klucel (hydroxypropylcellulose) (HPC)
# [5] = dose: 200.0 mg/kg/injection, schedule: Q01DX001 (ip), vehicle: Klucel (hydroxypropylcellulose) (HPC)
# [6] = dose: 400.0 mg/kg/injection, schedule: Q01DX001 (ip), vehicle: Klucel (hydroxypropylcellulose) (HPC)
# [7] = dose: 100.0 mg/kg/injection, schedule: Q04DX003 (ip), vehicle: Klucel (hydroxypropylcellulose) (HPC)
# [8] = dose: 200.0 mg/kg/injection, schedule: Q04DX003 (ip), vehicle: Klucel (hydroxypropylcellulose) (HPC)
# [9] = dose: 400.0 mg/kg/injection, schedule: Q04DX003 (ip), vehicle: Klucel (hydroxypropylcellulose) (HPC)
structure (smiles),measurement,setting,value
CCC(=O)/C=C/c1ccc(Cl)cc1,T/C,[1],110 % of control
same,T/C,[2],109 % of control
same,T/C,[3],107 % of control
COc1c(O)c(OC)c(C(=O)/C=C/c2ccccc2)c(O)c1OC,T/C,"dose: 25.0 mg/kg/injection, schedule: Q01DX009 (ip), vehicle: saline with Tween-80",107 % of control
same,T/C,[1],114 % of control
same,T/C,[2],99 % of control
Cc1ccc(Nc2nnc(N=Nc3ccccc3)s2)cc1C,T/C,[4],100 % of control
same,T/C,[5],90 % of control
same,T/C,[6],100 % of control
C[C@]12CC[C@H]3[C@@H](CCC4=C[C@@H](OC5OCC(OC6OC(CO)C(O)C(O)C6O)C(O)C5O)CC[C@@]43C=O)[C@@]1(O)CCC2C1=CC(=O)OC1 (stereo partly drawn),T/C,"dose: 2.5 mg/kg/injection, schedule: Q01DX009 (ip), vehicle: saline",122 % of control
same,T/C,"dose: 5.0 mg/kg/injection, schedule: Q01DX009 (ip), vehicle: saline",111 % of control
O=[N+]([O-])c1ccc(C(Br)C(Br)c2ccccc2Br)cc1 (stereo not drawn),T/C,[7],100 % of control
same,T/C,[8],95 % of control
same,T/C,[9],90 % of control
CC(=O)OC1CCC2(C)C(=CCC3C2CCC2(C)C(OC(=O)c4ccccc4)CCC32)C1 (stereo not drawn),T/C,[4],100 % of control
same,T/C,"dose: 100.0 mg/kg/injection, schedule: Q01DX009 (ip), vehicle: saline",110 % of control
same,T/C,[7],120 % of control
same,T/C,[5],100 % of control
same,T/C,"dose: 200.0 mg/kg/injection, schedule: Q01DX009 (ip), vehicle: saline",95 % of control
same,T/C,[8],105 % of control
same,T/C,[6],100 % of control
same,T/C,"dose: 400.0 mg/kg/injection, schedule: Q01DX009 (ip), vehicle: saline",105 % of control
same,T/C,[9],110 % of control
O=P(NC1CCCC1)(N1CC1)N1CC1,T/C,"dose: 1.56 mg/kg/injection, schedule: Q01DX009 (ip), vehicle: saline",116 % of control
same,T/C,"dose: 6.25 mg/kg/injection, schedule: Q01DX009 (ip), vehicle: saline",187 % of control and 220 % of control
same,T/C,"dose: 12.5 mg/kg/injection, schedule: Q01DX009 (ip), vehicle: saline",91 % of control and 104 % of control
O=C(Nc1cc(C(F)(F)F)ccc1Cl)Nc1cc(C(F)(F)F)c(Cl)cc1S(=O)(=O)O,T/C,"dose: 50.0 mg/kg/injection, schedule: Q04DX003 (ip), vehicle: saline",90 % of control
same,T/C,"dose: 100.0 mg/kg/injection, schedule: Q04DX003 (ip), vehicle: saline",109 % of control
same,T/C,"dose: 200.0 mg/kg/injection, schedule: Q04DX003 (ip), vehicle: saline",122 % of control
CC(=O)OC1(C)CC(C)C(O)C(C(O)CC2CC(=O)NC(=O)C2)C1 (stereo not drawn),T/C,"dose: 0.5 mg/kg/injection, schedule: Q01DX010 (ip), vehicle: water",120 % of control
same,T/C,"dose: 2.0 mg/kg/injection, schedule: Q01DX010 (ip), vehicle: water",150 % of control and 160 % of control
same,T/C,"dose: 3.0 mg/kg/injection, schedule: Q01DX010 (ip), vehicle: water",190 % of control
same,T/C,"dose: 4.0 mg/kg/injection, schedule: Q01DX010 (ip), vehicle: water",90 % of control and 110 % of control
N#Cc1c(Nc2cccc(Cl)c2)sc(C(=O)c2cc3cc(Cl)ccc3o2)c1N,T/C,[1],109 % of control
same,T/C,[2],100 % of control
same,T/C,[3],93 % of control
NC(CO)C(=O)O.[Cl-].[Cl-].[Cl-].[Cl-].[Pt+2] (stereo not drawn),T/C,"dose: 50.0 mg/kg/injection, schedule: Q01DX009 (ip), vehicle: saline",116 % of control
FC(F)(F)c1nc[nH]c1C(F)(F)F,T/C,"dose: 3.12 mg/kg/injection, schedule: Q01DX009 (ip), vehicle: water",99 % of control
same,T/C,"dose: 6.25 mg/kg/injection, schedule: Q01DX009 (ip), vehicle: water",90 % of control
same,T/C,"dose: 12.5 mg/kg/injection, schedule: Q01DX009 (ip), vehicle: water",91 % of control
same,T/C,"dose: 25.0 mg/kg/injection, schedule: Q01DX009 (ip), vehicle: water",99 % of control
same,T/C,"dose: 50.0 mg/kg/injection, schedule: Q01DX009 (ip), vehicle: water",89 % of control
same,T/C,"dose: 50.0 mg/kg/injection, schedule: Q04DX003 (ip), vehicle: water",98 % of control
same,T/C,"dose: 100.0 mg/kg/injection, schedule: Q04DX003 (ip), vehicle: water",104 % of control
COc1ccc(Nc2c3ccccc3nc3ccccc23)cc1,T/C,[1],208 % of control
O=C(/C=C/c1ccc(OCc2ccccc2)cc1)c1cccc(F)c1,T/C,[1],100 % of control
same,T/C,[2],100 % of control
same,T/C,[3],92 % of control
